Literature values, collected in paper PMC7533793 (Cancer, 2009).
Where two headings read alike, the source gives them in different places.

System: in-transit extremity melanoma
Details: for CR rate, isolated limb infusion: Sydney Melanoma Unit study
[1] = previously published experience of the authors, without ADH-1

SMILES: N[C@@H](Cc1ccc(N(CCCl)CCCl)cc1)C(=O)O [melphalan, L-phenylalanine mustard]
- CR rate, isolated limb infusion (n = 60, M. D. Anderson stage IIIab (AJCC stage IIIC)): 33%
- CR rate, isolated limb infusion (n = 74, M. D. Anderson stage IIIa (AJCC stage IIIB)): 43%
- CR rate, isolated limb infusion with LPAM [1]: 30%
- PD rate, isolated limb infusion with LPAM [1]: 48%
- PR rate, isolated limb infusion with LPAM [1]: 7%
